Test results taken from ChEMBL document CHEMBL1201862, “PubChem BioAssay data set” (2004).
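How tested: cells in 96-well plates exposed to compound for 48 hours at five concentrations. GI50: concentration for 50% inhibition of growth.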 Active and inactive are the calls of the source. Cut-off read from the data, not from the text of the source: active = GI50 up to about 1.1 µM and inactive = higher.

How the values were obtained:
Assay in all cases: DTP human tumour cell line panel, 48 h
MDA-N = tested on: MDA-N
BT-549 = tested on: BT-549
HL-60 = tested on: HL-60
K562 = tested on: K562
786-0 = tested on: 786-0
OVCAR-8 = tested on: OVCAR-8
PC-3 = tested on: PC-3
HOP-92 = tested on: HOP-92
CCRF-CEM = tested on: CCRF-CEM
SK-OV-3 = tested on: SK-OV-3
SNB-19 = tested on: SNB-19
SN12C = tested on: SN12C
SF-268 = tested on: SF-268
HCT-116 = tested on: HCT-116
UACC-257 = tested on: UACC-257
SR = tested on: SR
CAKI-1 = tested on: CAKI-1
NCI-H522 = tested on: NCI-H522
LOX IMVI = tested on: LOX IMVI

Measured: GI50

COc1cc(COC(=O)NC(Cc2cccs2)C(=O)O)c([N+](=O)[O-])cc1OC (stereo not drawn)
inactive: MDA-N > 100 µM | BT-549 > 100 µM | HL-60 > 100 µM | K562 > 100 µM | 786-0 > 100 µM | OVCAR-8 > 100 µM | PC-3 > 100 µM | HOP-92 > 100 µM | CCRF-CEM > 100 µM | SK-OV-3 > 100 µM | SNB-19 > 100 µM | SN12C > 100 µM | SF-268 > 100 µM | HCT-116 > 100 µM | UACC-257 > 100 µM | SR > 100 µM

CN(CCNC(=O)c1nn(-c2ccc(Cl)cc2Cl)c2c1Cc1ccccc1-2)CCNC(=O)c1nn(-c2ccc(Cl)cc2Cl)c2c1Cc1ccccc1-2
inactive: MDA-N 2.25 µM | BT-549 7.38 µM | HL-60 1.55 µM | CAKI-1 4.94 µM | K562 1.57 µM | 786-0 2.16 µM | OVCAR-8 2.07 µM | PC-3 5.87 µM | HOP-92 1.99 µM | CCRF-CEM 2.27 µM | SK-OV-3 15.7 µM | SNB-19 3.71 µM | SN12C 3.79 µM | SF-268 12.1 µM | HCT-116 2.1 µM | NCI-H522 1.58 µM | UACC-257 2.12 µM | LOX IMVI 2.07 µM

O=C1NC2CCCCC2NC1=C(C(=O)c1ccccc1)C(=O)c1ccccc1 (stereo not drawn)
inactive: MDA-N 70.3 µM | BT-549 10.9 µM | HL-60 46.7 µM | CAKI-1 36.4 µM | K562 35.5 µM | 786-0 > 100 µM | OVCAR-8 25.5 µM | PC-3 53 µM | CCRF-CEM 11 µM | SK-OV-3 25.4 µM | SNB-19 65.9 µM | SN12C 20.7 µM | SF-268 69.2 µM | HCT-116 40.7 µM | NCI-H522 18.9 µM | UACC-257 95.7 µM | LOX IMVI 38.1 µM | SR 27.2 µM

CC(=O)OCc1cc(CCC(=O)NCCNc2c3ccccc3nc3ccccc23)cc(COC(C)=O)c1O[Si](C)(C)C(C)(C)C
inactive: MDA-N 5.85 µM | BT-549 13.7 µM | HL-60 2.87 µM | K562 2.65 µM | 786-0 8.81 µM | OVCAR-8 13.8 µM | PC-3 10.5 µM | HOP-92 4.89 µM | CCRF-CEM 3.7 µM | SK-OV-3 13.9 µM | SNB-19 11.1 µM | SN12C 1.83 µM | HCT-116 4.61 µM | NCI-H522 5.5 µM | UACC-257 4.36 µM | LOX IMVI 1.95 µM | SR 2.21 µM

CCCCCCC1CC(=O)C1(Cl)Cl (stereo not drawn)
inactive: MDA-N 25.9 µM | BT-549 21.4 µM | HL-60 2.96 µM | CAKI-1 18.9 µM | K562 14.7 µM | 786-0 15 µM | OVCAR-8 23.2 µM | PC-3 25.1 µM | CCRF-CEM 2.4 µM | SK-OV-3 > 100 µM | SNB-19 63.7 µM | SN12C 29.2 µM | SF-268 20.7 µM | HCT-116 16.7 µM | NCI-H522 17.3 µM | UACC-257 18.7 µM | LOX IMVI 14.8 µM | SR > 10 µM

O=C1C=C(Cl)C(=O)C(c2ccc(Cl)cc2)=C1
inactive: MDA-N 13.3 µM | BT-549 23.8 µM | HL-60 18.8 µM | CAKI-1 17.6 µM | K562 4.19 µM | 786-0 22.1 µM | OVCAR-8 18.2 µM | PC-3 15.3 µM | HOP-92 19.3 µM | CCRF-CEM 3.35 µM | SK-OV-3 47.3 µM | SNB-19 89.3 µM | SN12C 22.7 µM | SF-268 19.7 µM | HCT-116 19.3 µM | NCI-H522 5.05 µM | UACC-257 18.6 µM | LOX IMVI 16.1 µM

COc1ccc(C2CC(c3ccc4ccccc4c3O)=NN2)cc1OC (stereo not drawn)
inactive: MDA-N 21 µM | BT-549 23.5 µM | CAKI-1 > 100 µM | K562 21.7 µM | 786-0 37.8 µM | OVCAR-8 43.6 µM | PC-3 33.9 µM | HOP-92 > 100 µM | CCRF-CEM 14.9 µM | SK-OV-3 > 100 µM | SN12C 48.6 µM | SF-268 47.5 µM | HCT-116 38.6 µM | NCI-H522 40.1 µM | UACC-257 57.8 µM | SR 15.6 µM

Cc1ccc(/N=N/c2c(O)c(C(=O)Nc3ccccc3)cc3ccccc23)c([N+](=O)[O-])c1
inactive: MDA-N > 100 µM | BT-549 > 100 µM | CAKI-1 > 100 µM | K562 > 100 µM | 786-0 > 100 µM | OVCAR-8 > 100 µM | PC-3 > 100 µM | HOP-92 > 100 µM | CCRF-CEM > 100 µM | SK-OV-3 > 100 µM | SNB-19 > 100 µM | SN12C > 100 µM | SF-268 > 100 µM | HCT-116 > 100 µM | NCI-H522 > 100 µM | UACC-257 > 100 µM | LOX IMVI > 100 µM
